Here are results for seven molecules from US20120270905A1, “FLUORINATED 2,6-DIALKYL-3,5-DICYANO-4-(1H-INDAZOL-5-YL)-1,4-DIHYDROPYRIDINES AND METHODS OF USE THEREOF” (BAYER PHARMA AKTIENGESELLSCHAFT, priority 2009, published 2012).

Series [1] addresses T1, recombinant kinase domain of the human c-Met (amino acids 960-1390) (Homo sapiens, UniProt P08581).
T1 construct: kinase domain of the human c-Met (amino acids 960-1390); His6 (N); made in house; host or cells: insect cells (SF21)
As to the kind of experiment: c-Met receptor tyrosine kinase homogeneous time-resolved fluorescence assay (alternative format). It counts as biochemical. The note with it: HTRF format; ATP 10 μM, 30 min at 22° C. The text has this: c-Met Receptor Tyrosine Kinase Homogeneous Time-Resolved Fluorescence Assay (Alternative Format):
The N-terminally His6-tagged recombinant kinase domain of the human c-Met (amino acids 960-1390), expressed in insect cells (SF21) and purified by Ni-NTA affinity chromatography and consecutive size exclusion chromatography (Superdex 200), is used. Alternatively, commercially available c-Met (Millipore) can be used. As substrate for the kinase reaction, the biotinylated poly-Glu,Tyr (4:1) copolymer (#61GT0BLC, Cis Biointernational, Marcoule, France) is used.
For the assay, 50 nL of a 100-fold concentrated solution of the test compound in DMSO is pipetted into a black low-volume 384-well microtiter plate (Greiner Bio-One, Frickenhausen, Germany). […]
The resulting mixture is incubated for 1 h at 22° C. to allow the binding of the biotinylated phosphorylated peptide to the streptavidine-XLent and the PT66-Eu-chelate. Subsequently, the amount of phosphorylated substrate is evaluated by measurement of the resonance energy transfer from the PT66-Eu-chelate to the streptavidine-XLent. Therefore, the fluorescence emissions at 620 nm and 665 nm after excitation at 350 nm are measured in an HTRF reader, e.g. Rubystar (BMG Lab-technologies, Offenburg, Germany) or Viewlux (Perkin-Elmer). […]

The target of series [2] is T2, Recombinant human c-Met protein (Homo sapiens, UniProt P08581).
T2 construct: purchased Invitrogen
T2 sequence (P08581 25-1390): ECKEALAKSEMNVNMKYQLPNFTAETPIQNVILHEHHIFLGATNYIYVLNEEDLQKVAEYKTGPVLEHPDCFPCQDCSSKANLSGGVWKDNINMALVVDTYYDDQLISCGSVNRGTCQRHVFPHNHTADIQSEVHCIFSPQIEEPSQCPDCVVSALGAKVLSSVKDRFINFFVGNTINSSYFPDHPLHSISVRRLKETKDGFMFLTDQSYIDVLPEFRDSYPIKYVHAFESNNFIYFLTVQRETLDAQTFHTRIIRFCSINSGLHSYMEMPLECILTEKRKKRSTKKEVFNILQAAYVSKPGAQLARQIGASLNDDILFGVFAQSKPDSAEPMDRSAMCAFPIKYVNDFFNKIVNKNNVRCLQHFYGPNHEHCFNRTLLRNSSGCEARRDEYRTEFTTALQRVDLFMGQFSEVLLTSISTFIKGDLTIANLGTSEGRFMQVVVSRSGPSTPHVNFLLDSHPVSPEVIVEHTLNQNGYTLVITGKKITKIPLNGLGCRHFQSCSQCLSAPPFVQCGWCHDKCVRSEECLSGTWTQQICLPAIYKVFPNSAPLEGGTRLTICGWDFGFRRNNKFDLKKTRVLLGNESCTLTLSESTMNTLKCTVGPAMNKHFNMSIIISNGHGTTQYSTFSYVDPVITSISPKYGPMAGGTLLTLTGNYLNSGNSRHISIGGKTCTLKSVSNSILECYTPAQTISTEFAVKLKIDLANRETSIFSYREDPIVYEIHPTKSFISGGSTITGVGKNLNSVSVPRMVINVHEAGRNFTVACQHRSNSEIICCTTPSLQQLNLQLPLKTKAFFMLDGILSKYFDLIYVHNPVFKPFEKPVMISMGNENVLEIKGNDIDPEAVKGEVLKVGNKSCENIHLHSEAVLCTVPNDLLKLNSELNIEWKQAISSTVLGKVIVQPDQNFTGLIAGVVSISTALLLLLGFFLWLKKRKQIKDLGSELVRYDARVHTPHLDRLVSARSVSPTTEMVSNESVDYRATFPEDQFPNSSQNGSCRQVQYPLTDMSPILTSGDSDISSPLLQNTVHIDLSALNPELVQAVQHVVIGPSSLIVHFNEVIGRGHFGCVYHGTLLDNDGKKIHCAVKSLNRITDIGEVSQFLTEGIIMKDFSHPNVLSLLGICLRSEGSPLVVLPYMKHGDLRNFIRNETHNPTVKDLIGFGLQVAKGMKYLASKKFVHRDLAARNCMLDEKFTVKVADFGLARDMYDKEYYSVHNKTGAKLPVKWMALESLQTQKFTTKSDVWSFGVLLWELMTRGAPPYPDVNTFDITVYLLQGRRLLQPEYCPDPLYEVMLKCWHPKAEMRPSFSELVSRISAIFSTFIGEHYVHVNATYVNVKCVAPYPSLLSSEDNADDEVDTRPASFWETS
The series can be described thus: c-Met receptor tyrosine kinase activity assay (NADH read-out). It counts as biochemical. The conditions noted are these: c-Met 30 nM, ATP 30 μM, 100 min at 32° C. The protocol:
c-Met Receptor Tyrosine Kinase Activity Assay (NADH Read-Out):
Recombinant human c-Met protein (Invitrogen, Carlsbad, Calif., USA) is used. As substrate for the kinase reaction the peptide KKKSPGEYVNIEFG (JPT, Germany) is used. For the assay, 1 μL of a 51-fold concentrated solution of the test compound in DMSO is pipetted into a white 384-well microtiter plate (Greiner Bio-One, Frickenhausen, Germany). 25 μL of a solution of c-Met (final concentration 30 nM) and pyruvate kinase/lactate dehydrogenase (Roche Diagnostics, Mannheim, Germany; final concentration 8 mg/L) in assay buffer [3-(N-morpholino)propanesulfonic acid (MOPS), 50 mM, pH 7; MgCl2, 10 mM; bovine serum albumin (BSA), 0.01%; Triton X 100, 0.01%; DTT, 2 mM] are added, and the mixture is incubated for 5 min at room temperature. Then, the kinase reaction is started by the addition of 25 μL of a solution of adenosine triphosphate (ATP, final concentration 30 μM), substrate (final concentration 100 μM), nicotinamide adenine dinucleotide (NADH, final concentration 50 μM) and dithiothreitol (DTT, final concentration 2 mM) in assay buffer, and the resulting mixture is incubated for a reaction time of 100 min at 32° C.
Subsequently, the amount of phosphorylated substrate is evaluated by measurement of the decrease of NADH fluorescence. Therefore, the fluorescence emissions at 465 nm after excitation at 340 nm is measured in a fluorescence reader, e.g. Tecan Ultra (Tecan, Männedorf, Switzerland). The data are normalised (enzyme reaction without inhibitor=0% inhibition; all other assay components but no enzyme=100% inhibition).
Some representative IC50 values are listed in Table 1 below together with corresponding data for a structurally related, non-fluorinated compound from prior art (cf. WO 2008/071451): […]

The nature of series [3]: Caco-2 permeability assay. It counts as in vitro ADME. The conditions noted are these: human, apical to basolateral, test concentration 2 μM, 2 h at 37° C., read-out: Caco-2 permeability PappA-B. The source says: Caco-2 Permeability Assay:
The in vitro permeation of a test compound across a Caco-2 cell monolayer is a well-established assay system to predict the permeability from the gastro-intestinal tract [cf. P. Artursson and J. Karlsson: Correlation between oral drug absorption in humans and apparent drug permeability coefficients in human intestinal epithelial (Caco-2) cells, Biochem. Biophys. 175 (3), 880-885 (1991)]. The permeability of the compounds of the present invention in such Caco-2 cells was deter-mined as described below:
Human Caco-2 cells (ACC No. 169, DSMZ, German Collection of Microorganisms and Cell Cultures, Braunschweig, Germany) are seeded on 24-well insert plates and are allowed to grow for 14-16 days. For permeability studies, the test compounds are dissolved in DMSO and diluted to the final test concentration of 2 μM with transport buffer [Hanks' Buffered Salt Solution, Gibco/Invitrogen, further supplemented with glucose (final concentration 19.9 mM) and HEPES (final concentration 9.8 mM)]. For determination of the apical to basolateral permeability (PappA-B), the test compound solution is added to the apical side of the cell monolayer and transport buffer to the basolateral side of the monolayer; for determination of the basolateral to apical permeability (PappB-A), the test compound solution is added to the basolateral side of the cell monolayer and transport buffer to the apical side of the monolayer. Samples are taken from the donor compartment at the beginning of the experiment to confirm mass balance. After an incubation of 2 h at 37° C., samples are taken from both compartments. Samples are analyzed by LC-MS/MS, and the apparent permeability coefficients are calculated. Lucifer Yellow permeability is assayed for each cell monolayer to ensure cell monolayer integrity, and the permeability of Atenolol (low permeability marker) and Sulfasalazine (marker for active excretion) is determined for each batch as quality control. […]

T1 sequence (P08581 960-1390): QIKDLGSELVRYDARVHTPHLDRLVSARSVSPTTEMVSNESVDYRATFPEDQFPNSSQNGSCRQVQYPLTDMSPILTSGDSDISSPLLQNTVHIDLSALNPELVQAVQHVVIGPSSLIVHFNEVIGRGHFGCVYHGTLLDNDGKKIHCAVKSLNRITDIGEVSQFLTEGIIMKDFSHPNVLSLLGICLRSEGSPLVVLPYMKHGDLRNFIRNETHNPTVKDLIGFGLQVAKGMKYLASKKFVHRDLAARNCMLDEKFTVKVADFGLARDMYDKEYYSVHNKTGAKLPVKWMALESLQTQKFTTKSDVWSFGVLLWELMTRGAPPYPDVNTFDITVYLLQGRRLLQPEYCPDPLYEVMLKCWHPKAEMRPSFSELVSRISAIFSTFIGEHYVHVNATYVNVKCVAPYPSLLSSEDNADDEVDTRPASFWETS

In the case of `CCC1=C(C#N)C(c2ccc3[nH]nc(C)c3c2)C(C#N)=C(C(F)(F)F)N1` (centres unmarked) [Example 4, 2-Ethyl-4-(3-methyl-1H-indazol-5-yl)-6-(trifluoromethyl)-1,4-dihydropyridine-3,5-dicarbonitrile], in series [1], the half-inhibitory concentration (IC50) was 11 nM.
`Cc1n[nH]c2ccc(C3C(C#N)=C(CCC(F)(F)F)NC(C(F)F)=C3C#N)cc12` (centres unmarked) [Example 14, 2-(Difluoromethyl)-4-(3-methyl-1H-indazol-5-yl)-6-(3,3,3-trifluoropropyl)-1,4-dihydropyridine-3,5-dicarbonitrile]: the 50% inhibitory concentration (IC50) in series [2] is 17 nM.
As for `CCC1=C(C#N)C(c2ccc3[nH]nc(C)c3c2)C(C#N)=C(C(F)F)N1` (centres unmarked) [Example 13, 2-(Difluoromethyl)-6-ethyl-4-(3-methyl-1H-indazol-5-yl)-1,4-dihydropyridine-3,5-dicarbonitrile], in series [3], the Papp A→B at 2 h, 2 μM is 25.9 ×10⁻⁶ cm/s. Also, the IC50 in series [2] is 9 nM.
For `Cc1n[nH]c2ccc(C3C(C#N)=C(CCC(C)C)NC(C(F)(F)F)=C3C#N)cc12` (racemic) [Example 1, 2-(3-Methylbutyl)-4-(3-methyl-1H-indazol-5-yl)-6-(trifluoromethyl)-1,4-dihydropyridine-3,5-dicarbonitrile], in that order: 21.7 ×10⁻⁶ cm/s and 16 nM.
The matching figures for `Cc1n[nH]c2cc(F)c(C3C(C#N)=C(CCC(F)(F)F)NC(C(F)(F)F)=C3C#N)cc12` (racemic) [Example 7, 4-(6-Fluoro-3-methyl-1H-indazol-5-yl)-2-(trifluoromethyl)-6-(3,3,3-trifluoropropyl)-1,4-dihydro-pyridine-3,5-dicarbonitrile]: 20.4 ×10⁻⁶ cm/s and 52 nM.
With `Cc1n[nH]c2cc(F)c(C3C(C#N)=C(CCC(F)(F)F)NC(C(F)F)=C3C#N)cc12` (racemic) [Example 10, 2-(Difluoromethyl)-4-(6-fluoro-3-methyl-1H-indazol-5-yl)-6-(3,3,3-trifluoropropyl)-1,4-dihydropyridine-3,5-dicarbonitrile], the IC50 in series [1] amounted to 11 nM; in series [2] it was 26 nM.
Consider `N#CC1=C(CCC(F)(F)F)NC(C(F)(F)F)=C(C#N)C1c1ccc2[nH]ncc2c1` (centres unmarked) [Example 16, 4-(1H-Indazol-5-yl)-2-(trifluoromethyl)-6-(3,3,3-trifluoropropyl)-1,4-dihydro-pyridine-3,5-dicarbonitrile], for which the IC50 in series [2] stood at 29 nM.
